How the values were obtained:
EAE = assay: Experimental autoimmune encephalomyelitis (EAE) induced with MBP in Lewis rats, clinical score; format: in vivo, female Lewis rats
A1 receptor = target: T1, A1 receptor (Rattus norvegicus, UniProt P25099); conditions: cited from earlier work
T1 sequence (P25099 1-326): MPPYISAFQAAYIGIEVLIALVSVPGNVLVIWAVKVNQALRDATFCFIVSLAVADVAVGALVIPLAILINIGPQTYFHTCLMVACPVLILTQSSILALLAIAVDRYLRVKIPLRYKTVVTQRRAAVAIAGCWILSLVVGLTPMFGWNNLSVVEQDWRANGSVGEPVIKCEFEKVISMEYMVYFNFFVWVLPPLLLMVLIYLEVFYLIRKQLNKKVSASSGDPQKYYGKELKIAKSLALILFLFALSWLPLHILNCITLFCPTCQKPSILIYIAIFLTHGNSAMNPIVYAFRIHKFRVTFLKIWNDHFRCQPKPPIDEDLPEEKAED

multiple sclerosis = conditions: patients having MS; cited from earlier work

Structure (SMILES): CNC(=O)[C@H]1O[C@@H](n2cnc3c(NCc4cccc(I)c4)ncnc32)[C@H](O)[C@@H]1O [CF101, N^6-(3-iodobenzyl)-adenosine-5′-N-methyluronamide]
- difference in the maximal clinical score between treated and control groups (EAE; 10 μg/kg PO BID from day 7, P<0.01, Student's t test): significant
- severity of the disease in the treated group (EAE; 10 μg/kg PO BID from day 7 after disease induction): significantly reduced
- clinical score in comparison to the control group (EAE; 10 μg/kg PO BID from day 7 after disease induction, score 0-5): remarkably low clinical score

Structure (SMILES): Nc1nc(Cl)nc2c1ncn2[C@H]1C[C@H](O)[C@@H](CO)O1 [CdA, 2-chloro-2′-deoxyadenosine]
- functional character at A1 receptors (A1 receptor): putative partial agonist
- effect on the disease condition of MS patients (multiple sclerosis): markedly ameliorate the disease condition

From patent US7465715B2, “Method for treatment of multiple sclerosis” (Can-Fite Biopharma, Ltd., priority 2003, dated 2008)
